{
  "source": "ChEMBL document CHEMBL6096628",
  "about": "“Discovery of a Highly Potent and Selective BRD9 PROTAC Degrader Based on E3 Binder Investigation for the Treatment of Hematological Tumors” (J Med Chem, 2024)",
  "key": {"[1]": {"tested_on": "MV4-11", "assay": "Induction of apoptosis in human MV4-11 cells assessed as early apoptotic cells at 1 nM incubated for 48 hrs by Annexin V-FITC/PI staining based flow cytometric analysis (reference value: 4.22 %)", "format": "functional"}, "[2]": {"tested_on": "MV4-11", "assay": "Downregulation of CHEK2 protein expression in human MV4-11 cells by proteomic analysis", "format": "functional, cell-based"}, "[3]": {"tested_on": "MV4-11", "assay": "Induction of apoptosis in human MV4-11 cells assessed as early apoptotic cells at 0.01 nM incubated for 48 hrs by Annexin V-FITC/PI staining based flow cytometric analysis (reference value: 4.22 %)", "format": "functional"}, "[4]": {"biological_target": "T1, Protein cereblon/Bromodomain-containing protein 9 (Homo sapiens, UniProt Q9H8M2+Q96SW2)", "T1 sequence (Q96SW2 whole entry, looked up)": "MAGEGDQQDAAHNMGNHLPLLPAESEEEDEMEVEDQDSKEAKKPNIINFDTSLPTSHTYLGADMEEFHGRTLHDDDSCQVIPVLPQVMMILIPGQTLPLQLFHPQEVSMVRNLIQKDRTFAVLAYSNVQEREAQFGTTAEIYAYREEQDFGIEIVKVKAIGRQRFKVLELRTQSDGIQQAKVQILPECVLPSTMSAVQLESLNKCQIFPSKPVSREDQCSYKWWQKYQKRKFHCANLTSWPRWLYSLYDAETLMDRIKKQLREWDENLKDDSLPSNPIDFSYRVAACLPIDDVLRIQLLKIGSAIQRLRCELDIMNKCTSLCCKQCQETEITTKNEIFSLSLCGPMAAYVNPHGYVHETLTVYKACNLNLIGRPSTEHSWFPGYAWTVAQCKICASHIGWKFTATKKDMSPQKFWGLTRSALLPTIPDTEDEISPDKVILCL", "T1 sequence (Q9H8M2 whole entry, looked up)": "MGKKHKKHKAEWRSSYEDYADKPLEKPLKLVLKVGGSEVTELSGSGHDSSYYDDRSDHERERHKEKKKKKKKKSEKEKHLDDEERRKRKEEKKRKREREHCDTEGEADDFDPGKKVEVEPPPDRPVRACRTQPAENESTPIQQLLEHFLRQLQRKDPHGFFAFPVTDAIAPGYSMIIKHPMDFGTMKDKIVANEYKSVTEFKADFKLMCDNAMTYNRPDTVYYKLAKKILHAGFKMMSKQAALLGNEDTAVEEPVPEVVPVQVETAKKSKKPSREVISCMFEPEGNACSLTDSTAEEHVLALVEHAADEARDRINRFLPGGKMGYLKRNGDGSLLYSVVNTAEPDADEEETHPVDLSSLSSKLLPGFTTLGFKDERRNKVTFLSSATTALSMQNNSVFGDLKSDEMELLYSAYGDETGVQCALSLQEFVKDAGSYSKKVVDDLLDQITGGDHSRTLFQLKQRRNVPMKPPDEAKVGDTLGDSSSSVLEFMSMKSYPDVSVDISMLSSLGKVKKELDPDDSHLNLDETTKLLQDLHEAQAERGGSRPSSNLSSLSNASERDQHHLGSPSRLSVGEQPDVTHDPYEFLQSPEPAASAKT", "assay": "PROTAC activity at CRBN/BRD9 in human MV4-11 cells assessed as induction of BRD9 degradation at 0.33 nM in presence of N-(1,1-dioxidotetrahydro-2H-thiopyran-4-yl)-5-ethyl-4-oxo-7-(3-(trifluoromethyl)phenyl)-4,5-dihydrothieno[3,2-c]pyridine-2-carboximidamide by Western blot analysis", "format": "cell-based"}, "[5]": {"assay": "Cytotoxicity against PBMC cells (unknown origin) assessed as inhibition of cell growth at 5000 nM incubated for 7 days by MTS reagent based assay", "format": "toxicity", "details": "168 h, 5 µM, time 7 day"}, "[6]": {"tested_on": "MV4-11", "assay": "Induction of apoptosis in human MV4-11 cells assessed as necrotic cells at 10 nM incubated for 48 hrs by Annexin V-FITC/PI staining based flow cytometric analysis (reference value: 0.07 %)", "format": "functional"}, "[7]": {"assay": "AUC (0 to t) in ICR mouse at 20 mg/kg, IG administered via gavage and measured after 24 hrs by LC-MS analysis", "format": "ADME, organism-based", "details": "in vivo, po"}, "[8]": {"assay": "Cmax in ICR mouse at 20 mg/kg, IG administered via gavage and measured after 24 hrs by LC-MS analysis", "format": "ADME, organism-based", "details": "in vivo, po"}, "[9]": {"biological_target": "T1, Protein cereblon/Bromodomain-containing protein 9", "assay": "PROTAC activity at CRBN/BRD9 in human MV4-11 cells assessed as induction of BRD9 degradation by measuring maximal efficacy by Western blot analysis relative to control", "format": "cell-based"}, "[10]": {"tested_on": "MV4-11", "assay": "Upregulation of C-myc expression level in human MV4-11 cells at 0.1 to 10 nM measured after 24 to 48 hrs by Western blot analysis", "format": "functional, cell-based", "details": "dose 0.1-10 nM, time 24-48 hrs"}, "[11]": {"tested_on": "OCI-Ly10", "assay": "Antitumor activity against human OCI-Ly10 cells xenografted in Balb/c nude mouse assessed as tumor mass at 30 mg/kg, po administered once daily for 18 days (reference value: 1.12 +/- 0.44 g)", "format": "functional", "details": "time 18 day"}, "[12]": {"tested_on": "MV4-11", "assay": "Downregulation of AXIN2 expression level in human MV4-11 cells at 0.1 to 10 nM measured after 24 to 48 hrs by Western blot analysis", "format": "functional, cell-based", "details": "dose 0.1-10 nM, time 24-48 hrs"}, "[13]": {"tested_on": "MV4-11", "assay": "Induction of BRD7 degradation in human MV4-11 cells at 100 nM by Western blot analysis", "format": "cell-based"}, "[14]": {"tested_on": "MV4-11", "assay": "Antitumor activity against human MV4-11 cells xenografted in Balb/c nude mouse assessed as tumor weight at 20 mg/kg, ip administered once daily for 20 days (reference value: 1.30 +/- 0.51 g)", "format": "functional", "details": "time 20 day"}, "[15]": {"biological_target": "T1, Protein cereblon/Bromodomain-containing protein 9", "assay": "PROTAC activity at CRBN/BRD9 in human MV4-11 cells assessed as induction of BRD9 degradation at 100 nM by Western blot analysis relative to control", "format": "cell-based"}, "[16]": {"tested_on": "MV4-11", "assay": "Downregulation of TTK protein expression in human MV4-11 cells by proteomic analysis", "format": "functional, cell-based"}, "[17]": {"tested_on": "MV4-11", "assay": "Induction of GSPT1 degradation in human MV4-11 cells at 0.1 to 100 nM by Western blotting analysis", "format": "cell-based", "details": "dose 0.1-100 nM"}, "[18]": {"tested_on": "MV4-11", "assay": "Upregulation of C-myc mRNA expression level in human MV4-11 cells at 0.1 to 10 nM measured after 24 to 48 hrs by qPCR analysis", "format": "functional, cell-based", "details": "dose 0.1-10 nM, time 24-48 hrs"}, "[19]": {"tested_on": "MV4-11", "assay": "Induction of apoptosis in human MV4-11 cells assessed as viable cells at 0.1 nM incubated for 48 hrs by Annexin V-FITC/PI staining based flow cytometric analysis (reference value: 94.80 %)", "format": "functional", "details": "read-out: Activity"}, "[20]": {"tested_on": "MV4-11", "assay": "Downregulation of beta-catenin mRNA expression level in human MV4-11 cells at 0.1 to 10 nM measured after 24 to 48 hrs by Western blot analysis", "format": "functional, cell-based", "details": "dose 0.1-10 nM, time 24-48 hrs"}, "[21]": {"assay": "Toxicity in Balb/c nude mouse xenografted with human MV4-11 cells assessed as weight loss at 20 mg/kg, ip administered once a day for 20 days", "format": "organism-based", "details": "in vivo, 480 h, time 20 day"}, "[22]": {"tested_on": "OCI-Ly10", "assay": "Antitumor activity against human OCI-Ly10 cells xenografted in Balb/c nude mouse assessed as test to control ratio at 30 mg/kg, po administered once daily for 18 days relative to control", "format": "functional", "details": "time 18 day"}, "[23]": {"tested_on": "MV4-11", "assay": "Induction of apoptosis in human MV4-11 cells assessed as early apoptotic cells at 10 nM incubated for 48 hrs by Annexin V-FITC/PI staining based flow cytometric analysis (reference value: 4.22 %)", "format": "functional"}, "[24]": {"tested_on": "MV4-11", "assay": "Antitumor activity against human MV4-11 cells xenografted in Balb/c nude mouse assessed as tumor volume at 20 mg/kg, ip administered once daily for 20 days (reference value: 1187 +/- 449 mm^3)", "format": "functional", "details": "time 20 day"}, "[25]": {"assay": "Toxicity in Balb/c nude mouse xenografted with human MV4-11 cells assessed as behavioral abnormalities at 20 mg/kg, ip administered once a day for 20 days", "format": "organism-based", "details": "in vivo, 480 h, time 20 day"}, "[26]": {"tested_on": "Mus musculus", "assay": "Upregulation of BRD7 expression in Balb/c nude mouse tumor xenografted with human MV4-11 cells at 20 mg/kg, ip administered once daily for 20 days by Western blot analysis", "format": "functional, organism-based", "details": "time 20.0 day"}, "[27]": {"tested_on": "Kasumi 1", "assay": "Antiproliferative activity against human Kasumi 1 cells assessed as inhibition of cell growth incubated for 7 days by MTS reagent based assay", "format": "functional", "details": "Kasumi 1, 168 h"}, "[28]": {"tested_on": "MV4-11", "assay": "Downregulation of KHDC4 protein expression in human MV4-11 cells by proteomic analysis", "format": "functional, cell-based"}, "[29]": {"tested_on": "MV4-11", "assay": "Downregulation of beta-catenin expression level in human MV4-11 cells at 0.1 to 10 nM measured after 24 to 48 hrs by Western blot analysis", "format": "functional, cell-based", "details": "dose 0.1-10 nM, time 24-48 hrs"}, "[30]": {"tested_on": "MV4-11", "assay": "Induction of apoptosis in human MV4-11 cells assessed as viable cells at 10 nM incubated for 48 hrs by Annexin V-FITC/PI staining based flow cytometric analysis (reference value: 94.80 %)", "format": "functional", "details": "read-out: Activity"}, "[31]": {"biological_target": "T1, Protein cereblon/Bromodomain-containing protein 9", "assay": "PROTAC activity at CRBN/BRD9 in human MV4-11 cells assessed as induction of BRD9 degradation at 1 nM by Western blot analysis relative to control", "format": "cell-based"}, "[32]": {"tested_on": "MV4-11", "assay": "Antitumor activity against human MV4-11 cells xenografted in Balb/c nude mouse assessed as tumor growth inhibition at 20 mg/kg, ip administered once daily for 20 days relative to control", "format": "functional", "details": "MV4-11, 480 h, time 20 day, read-out: TGI"}, "[33]": {"biological_target": "T1, Protein cereblon/Bromodomain-containing protein 9", "assay": "PROTAC activity at CRBN/BRD9 in human MV4-11 cells assessed as induction of BRD9 degradation at 0.33 nM in presence of pomalidomide by Western blot analysis", "format": "cell-based"}, "[34]": {"tested_on": "MV4-11", "assay": "Induction of apoptosis in human MV4-11 cells assessed as late apoptotic cells at 1 nM incubated for 48 hrs by Annexin V-FITC/PI staining based flow cytometric analysis (reference value: 0.91 %)", "format": "functional"}},
  "note": "Activity calls are given as the source filed them. The calls are words filed in the database; no cut-off is given here.",
  "data": [
    {"compound": "COc1cc(-c2cn(C)c(=O)c3ccccc23)cc(OC)c1CN1CCC(CN2CCC(c3ccc4c5c(cccc35)C(=O)N4C3CCC(=O)NC3=O)CC2)CC1", "note": "(centres undefined)", "values": [
      {"measurement": "Activity", "setting": "[1]", "value": 13.79, "unit": "%"},
      {"measurement": "Activity", "setting": "[2]", "value": "Active"},
      {"measurement": "Activity", "setting": "[3]", "value": 6.35, "unit": "%"},
      {"measurement": "Activity", "setting": "[4]", "value": "inactive"},
      {"measurement": "Activity", "setting": "[5]", "value": "Toxic"},
      {"measurement": "Activity", "setting": "[6]", "value": 0.21, "unit": "%"},
      {"measurement": "AUC(0-t) at 24 h", "setting": "[7]", "value": 1300, "unit": "ng·h/mL"},
      {"measurement": "Cmax", "setting": "[8]", "value": 127, "unit": "ng/mL"},
      {"measurement": "Emax", "setting": "[9]", "value": 97, "unit": "%"},
      {"measurement": "Activity", "setting": "[10]", "value": "Active"},
      {"measurement": "Activity", "setting": "[11]", "value": 0.56, "unit": "g"},
      {"measurement": "Activity", "setting": "[12]", "value": "Active"},
      {"measurement": "Activity", "setting": "[13]", "value": "inactive"},
      {"measurement": "Activity", "setting": "[14]", "value": 0.9, "unit": "g"},
      {"measurement": "Activity", "setting": "[15]", "value": 95, "unit": "%"},
      {"measurement": "Activity", "setting": "[16]", "value": "Active"},
      {"measurement": "Activity", "setting": "[17]", "value": "inactive"},
      {"measurement": "Activity", "setting": "[18]", "value": "Active"},
      {"measurement": "viability at 0.0001 µM", "setting": "[19]", "value": 87.4, "unit": "%"},
      {"measurement": "Activity", "setting": "[20]", "value": "Active"},
      {"measurement": "Activity", "setting": "[21]", "value": "Non-toxic"},
      {"measurement": "T/C", "setting": "[22]", "value": "~40", "unit": "%"},
      {"measurement": "Activity", "setting": "[23]", "value": 16.97, "unit": "%"},
      {"measurement": "Activity", "setting": "[24]", "value": 766, "unit": "mm3"},
      {"measurement": "Activity", "setting": "[25]", "value": "Non-toxic"},
      {"measurement": "Activity", "setting": "[26]", "value": "Active"},
      {"measurement": "IC50", "setting": "[27]", "value": 1.13, "unit": "nM"},
      {"measurement": "Activity", "setting": "[28]", "value": "Active"},
      {"measurement": "Activity", "setting": "[29]", "value": "Active"},
      {"measurement": "viability at 0.01 µM", "setting": "[30]", "value": 74.8, "unit": "%"},
      {"measurement": "Activity", "setting": "[31]", "value": 92.5, "unit": "%"},
      {"measurement": "inhibition in vivo at 20 mg/kg", "setting": "[32]", "value": 30.9, "unit": "%"},
      {"measurement": "Activity", "setting": "[33]", "value": "inactive"},
      {"measurement": "Activity", "setting": "[34]", "value": 5.74, "unit": "%"}
    ]}
  ]
}
